Assay results taken from patent publication US20240043394A1, “PROTEASOME ENHANCERS AND USES THEREOF” (Board of Trustees of Michigan State University, priority 2020, published 2024).

Experiments:
[1] = molecular target: T1, purified human 20S proteasome (Homo sapiens, UniProt P25787+P60900); experiment: Digestion of purified α-synuclein by purified 20S proteasome (silver staining); assay type: biochemical
T1 construct: purchased Boston Biochem or Life Sensors E-360 or ps020
Protocol: Quantification of α-synuclein degradation by each compound was done in triplicate. One-way ANOVA statistical analysis was used to determine statistical significance (ns=not significant, *p<0.05, *p<0.01, ***p<0.001, ****p<0.0001).
In vitro testing, IDP degradation: The ability of our small molecules 20S proteasome activators to degrade pathologically relevant IDPs was evaluated in vitro and in cells. […] Then, purified α-synuclein was added and the digestion was incubated at 37° for 6 hours. An SDS loading buffer was added and the samples were boiled to halt α-synuclein degradation. The percentage of remaining α-synuclein was visualized and quantified using silver staining (FIG. 3). Compound 2 was able to increase the rate of degradation of full length α-synuclein. At the highest concentration (5 μM), α-synuclein was reduced up to 33%.
Digestion of purified α-synuclein: Degradation assays were carried out in a 50 μL reaction volume of […] buffer at a pH of 7.8, 0.5 μM of purified α-synuclein, and 7.5 nM purified human 20S proteasome. The 20S proteasome was first diluted to 8.56 nM in the Tris-HCl buffer and 1 μL of the test compounds or DMSO was added. This mixture was incubated for 20 minutes at 37° C. After this incubation, 5 μL of a 5 μM stock of α-synuclein was added. The degradation mixture was incubated at 37° C. for 5 hours. The reaction was stopped with addition of concentrated SDS loading buffer and boiled for 10 minutes. After the samples were boiled, they were resolved on a 4-20% Tris-glycine SDS-PAGE gel and visualized using silver staining.

[2] = molecular target: T2, purified human 20S proteasome, T-L site (Homo sapiens, UniProt P25787+P60900); experiment: 20S proteasome small peptide assay, Boc-LRR-AMC trypsin-like probe; assay type: biochemical; details: for AC200 T-L site: concentration needed to double rate vs vehicle
T2 construct: purchased Boston Biochem or Life Sensors E-360 or ps020
Protocol: (§1) In vitro testing, 20S activation: The 20S proteasome activity of the compounds was assessed by utilizing the standard fluorogenic 7-amino-methylcoumarin (AMC) conjugated small peptide substrates that correspond to each of the catalytic sites in the 20S proteasome: chymotryptic-like site (Suc-LLVY-AMC), caspase-like site (Z-LLE-AMC), and trypsin-like site (Boc-LRR-AMC). When the small peptide substrate is degraded by the 20S proteasome, the AMC fluorophore is released and quantified to measure the rate of proteolytic cleavage. The 20S proteasome activity of the small molecules was evaluated at varying concentrations to determine the concentration at which the rate of proteolysis was doubled (i.e. the concentration needed to induce 200% activity) compared to the vehicle control (hereafter named as AC200). Concentrations ranging from 1.25 μM to 80 μM of each of compound were added to wells that contained 0.5 nM of purified human proteasome.
(§2) The overall enhancement of the rate of proteolysis of the 20S proteasome by a small molecule was first evaluated by adding a combination of all three peptide substrates to the treated sample. The combination of all three substrates represents a more accurate measurement of proteolytic activity of the proteasome because the catalytic sites housed in the β ring of the 20S proteasome communicate through allosteric interactions. For example, when a protein substrate encounters the chymotryptic-like site, a conformational change will occur activating the caspase-like site.^61 The individual contribution of each of the three catalytic sites was subsequently evaluated by adding only the corresponding peptide probes to gain insight into the contribution of each site on the overall enhanced proteolytic activity.
(§3) The fluorescent output, due to release of the AMC fluorophore, was then converted to the fold increase compared to a vehicle control sample, and the AC200 was calculated. […] (Table 1).
(§4) AC200 represents the concentration needed to double (e.g., 200%) the rate of substrate degradation compared to vehicle control. Max fold is the maximum fold rate increase compared to vehicle control.
(§5) 20S Proteasome Small Peptide Assay: Activity assays were carried out in a black flat/clear bottom 96 well plate with a […] volume. Concentrations of the potential activators, varying from 80 μM to 1.25 μM, were added to the well that contained 1 nM 20S proteasome purchased from either Boston Biochem (catalog number E-360) or Life Sensors (catalog number ps020), in a […] buffer at a pH of 7.8. This solution was left to incubate at 37° C. for 15 minutes. For the assay for the overall proteasome activity, 13.33 μM of each small peptide substrate is added. The 96 well plate is then placed into a plate reader (SpectraMax M5e spectrometer) and the plate reader will take a fluorescent reading every 5 minutes for an hour at 37° C. The enzymatic activity of the 20S proteasome is quantified using the fluorescent output at 380-460 nm, which is converted to max fold increase over the untreated sample. The activity of the individual catalytic assays is identical to the assay that assesses the overall activity of the 20S proteasome except only one small peptide substrate is added. To evaluate the activity of the CT-L and the Casp-L sites, 10 μM of the Suc-LLVY-AMC (Boston Biochem S-280) and Z-LLE-AMC (Boston Biochem S-230) were added, respectively. To evaluate the activity of the T-L site, 20 μM of the Boc-LRR-AMC (Boston Biochem S-300) is added.

[3] = molecular target: 26S proteasome (Homo sapiens, UniProt P25787+P60900); experiment: Fluorogenic small peptide degradation assay with the 26S proteasome (ATP and magnesium chloride added); assay type: biochemical; details: for 26S proteasome activation, in words: concentration range 0-80 μM
Protocol: The fluorogenic small peptide degradation assay was conducted again, with the 26S proteasome in place of the 20S proteasome. To ensure that the 26S proteasome remained in its fully assembled complex, ATP and magnesium chloride were added.

[4] = tested on: A53T mutant α-synuclein in Hek-293T cells; experiment: In cell degradation of A53T α-synuclein (Western blot); assay type: cell-based; details: 10 hours
Protocol: Error bars denote standard deviation. One-way ANOVA statistical analysis was used to determine statistical significance (ns=not significant, *p<0.05, **p<0.01, ***p<0.001, ****p<0.0001) (FIG. 4B).
Cellular efficacy: The A53T mutation of α-synuclein has been linked to early on-set familial Parkinson's disease and appears to oligomerize faster than the wild-type protein. […] Hek-293T cells were transiently transfected with an inducible Tet-One A53T mutant α-synuclein. The cells were treated with 100 ng/mL of doxycycline to induce the production of the A53T mutant. […] The cells were then lysed and the remaining A53T α-synuclein was visualized and quantified via Western Blotting (FIG. 4, n=4).
In cell degradation of A53T α-synuclein: In a 6 well plate, Hek293T cells were grown to 80% confluency and then transfected using Xfect biopolymer transfection system with the Tet-One A53T α-synuclein plasmid. 24 hours post transfection, 100 ng/mL of doxycycline was added to induce A53T α-synuclein expression. After 24 hours of protein induction, media was removed that contained the doxycycline and was washed with PBS. Media with the desired drug concentration or DMSO was added and treated for 10 hours. After the cells were treated with the test compounds or DMSO, the cells were scraped and the pelleted (300 g for 5 minutes). The supernatant was taken off and the cell pellet was washed with ice cold PBS and then lysed with RIPA buffer with added protease inhibitors. The cell lysate was incubated for 20 minutes on ice. The lysate was centrifuged for 15 minutes at 500 g and then the supernatant was collected. Concentrated SDS loading buffer was added and the samples were boiled for 10 minutes. The samples were then resolved on a 4-20% Tris-glycine SDS-PAGE gel and immunoblotted with mouse monoclonal anti α-synuclein IgG (1:2000) and anti-mouse HRP-linked IgG (1:2000). Blots were developed with ECL Westem reagent and imaged with an Azure Biosystems 3000 imager.

[5] = molecular target: T3, purified human 20S proteasome, CT-L site (Homo sapiens, UniProt P25787+P60900); experiment: 20S proteasome small peptide assay, Suc-LLVY-AMC chymotryptic-like probe; assay type: biochemical; details: for AC200 CT-L site: concentration needed to double rate vs vehicle; for Max Fold CT-L site: maximum fold rate increase vs vehicle
T3 construct: purchased Boston Biochem or Life Sensors E-360 or ps020
Protocol: as §1, §2, §3, §4, §5

[6] = molecular target: T4, purified human 20S proteasome, Casp-L site (Homo sapiens, UniProt P25787+P60900); experiment: 20S proteasome small peptide assay, Z-LLE-AMC caspase-like probe; assay type: biochemical; details: for AC200 Casp-L site: concentration needed to double rate vs vehicle
T4 construct: purchased Boston Biochem or Life Sensors E-360 or ps020
Protocol: as §1, §2, §3, §4, §5

[7] = molecular target: T1, purified human 20S proteasome; experiment: 20S proteasome small peptide assay, combination of all three fluorogenic substrates (CT-L/Casp-L/T-L); assay type: biochemical; details: three probes combined; for AC200 CT-L/Casp-L/T-L: concentration needed to double (200%) the rate of substrate degradation vs vehicle; for Max Fold CT-L/Casp-L/T-L: maximum fold rate increase vs vehicle control
Protocol: as §1, §2, §3, §4, §5

[8] = maximum fold rate increase vs vehicle

depletion of α-synuclein over concentration range, in words ([1]; 0.1 μM to 5 μM)	decrease of α-synuclein ([1]; 0.5 μM compound, 37° C., 6 hours) [%]	reduction of α-synuclein ([1]; 5 μM compound, 37° C., 6 hours) [%]	AC200 T-L site [2] [µM]	Max Fold T-L site [2, 8] [fold]	AC200 CT-L site [5] [µM]	Max Fold CT-L site [5] [fold]	AC200 Casp-L site [6] [µM]	Max Fold Casp-L site [6, 8] [fold]	AC200 CT-L/Casp-L/T-L [7] [µM]	Max Fold CT-L/Casp-L/T-L [7] [fold]	26S proteasome activation, maximum fold increase over the vehicle control ([3]; at higher concentrations (range 0-80 μM)) [fold]	Compound	26S proteasome activation, in words [3]	reduction of A53T mutant α-synuclein, in words ([4]; 3 μM (lowest concentration))	decrease of accumulated A53T α-synuclein ([4]; 10 μM, normalized to vehicle) [%]
clear dose dependent depletion	34	57	0.3	6	0.7	9.4	1.8	9.4	0.4	11	–	O=C(CCN1c2ccccc2Sc2ccc(Cl)cc21)N(c1ccc(F)cc1)c1ccc(F)cc1 [Compound 19, 3-(2-chloro-10H-phenothiazin-10-yl)-N,N-bis(4-fluorophenyl)propanamide]	did not display any 26S proteasome activation	reduce the concentration of the A53T mutant α-synuclein significantly	58
–	–	–	>80	–	7	8	>80	–	13.5	~4	2	CN(C)CCCN1c2ccccc2Sc2ccc(Cl)cc21 [CPZ, chlorpromazine, reference compound]	did not enhance the proteolytic activity of the 26S proteasome	–	–
